# From publication PMC5706701, “Development of a homogenous high-throughput assay for inositol hexakisphosphate kinase 1 activity” (PLoS ONE, 2017)
# “Also recorded” adds a separate entry of the source. Like-named read-outs stand apart in the source and are kept apart here.
# Assays:
# [1] = cited from earlier work
# DIO mice = tested on: DIO mice; set-up: method as in PMID 27689003; details: DIO model, mice treated with TNP; cited from earlier work
# Human IP6K1 [2] = molecular target: T1, Human IP6K1 (Homo sapiens, UniProt Q92551); assay: IP6K1 inhibition dose-response assay (ADP-Glo Max); assay type: biochemical; details: for IC50: read-out: IC50 IP6K1
# T1 construct: GST (N, cleaved yes); made in house; host or cells: C43 E. coli, pGEX-6P-2
# T1 sequence (Q92551 whole entry): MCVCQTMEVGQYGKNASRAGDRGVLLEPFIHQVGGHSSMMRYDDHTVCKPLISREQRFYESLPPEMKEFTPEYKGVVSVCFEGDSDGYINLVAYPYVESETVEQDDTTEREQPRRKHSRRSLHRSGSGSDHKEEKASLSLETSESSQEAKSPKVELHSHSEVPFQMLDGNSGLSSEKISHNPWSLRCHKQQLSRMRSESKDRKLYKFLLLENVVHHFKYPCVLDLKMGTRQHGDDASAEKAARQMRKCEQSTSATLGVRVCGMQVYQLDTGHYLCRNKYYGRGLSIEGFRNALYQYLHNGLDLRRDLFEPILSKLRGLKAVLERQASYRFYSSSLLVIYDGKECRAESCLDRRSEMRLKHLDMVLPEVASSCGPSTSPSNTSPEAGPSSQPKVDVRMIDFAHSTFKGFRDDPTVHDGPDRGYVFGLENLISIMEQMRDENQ
# [3] = cited from earlier work; remark: listed apart in the source
# [4] = tested on: enzymes involved in the detection steps of the kit; assay: Counter-screen against the detection steps of the ADP-Glo Max kit (no enzyme, no IP6); assay type: biochemical; details: 10μM compound, 25μM ADP and 975μM ATP
# Experimental: The Sigma LOPAC was obtained as 10mM DMSO stock solutions from the Johns Hopkins ChemCore facility. Each compound was first diluted to 50μM and 25% DMSO in assay buffer. The inhibition assay was performed as described above with 1μL of compound and 4μL of kinase master mix so that the final compound concentration was 10μM in 5% DMSO. […] Hits were determined based by the Z score, which is calculated as Z = (Xi-Xavg)/Sx, where Xi is the raw measurement on the i^th compound, Xavg and Sx are the mean and the standard deviation, respectively, of all measurements within the plate. Hits identified from the screen were repeated in the assay in quadruplicate for confirmation. These confirmed hits were then tested to determine if they inhibited the enzymes involved in the detection steps of the kit. Possible interference of the compounds was assessed by measuring the degree to which they inhibited the signal produced by a 25μM ADP in the presence of 975μM ATP. This experiment was run as described above for the inhibition assays in the absence of enzyme and IP6.
# Human IP6K1 [5] = molecular target: T1, Human IP6K1; assay: Inositol polyphosphate separation by PAGE (5PP-IP5 production by IP6K1); assay type: biochemical; details: 10μM inhibitor, 1mM ATP, 250μM IP6, 60nM IP6K1, 2 hours, 37°C
smiles,measurement,setting,value
"O=[N+]([O-])c1ccc(CNc2nc(NCc3cccc(C(F)(F)F)c3)nc3nc[nH]c23)cc1 [TNP, N2-(m-trifluorobenzyl), N6-(p-nitrobenzyl)purine]",Pharmacokinetic properties,[1],poor pharmacokinetic properties
same,Brain penetration,[1]; in vivo,low brain penetration
same,Performance in insulin and glucose tolerance tests,DIO mice,better performance in insulin and glucose tolerance tests
same,IC50,"Human IP6K1 [2]; 50μM IP6, 300μM ATP, 60nM IP6K1, 15 minutes",24 ± 1.5 µM
same,IC50,"Human IP6K1 [2]; 62.5μM ATP, 400μM IP6, 60nM IP6K1, 30 minutes, 37°C",12 ± 1.1 µM
same,IC50,"Human IP6K1 [2]; 100μM IP6, 300μM ATP, 60nM IP6K1, 15 minutes",20 ± 4.5 µM
same,IC50,"Human IP6K1 [2]; 200μM IP6, 300μM ATP, 60nM IP6K1, 15 minutes",21 ± 1.8 µM
same,IC50,"Human IP6K1 [2]; 250μM ATP, 400μM IP6, 60nM IP6K1, 30 minutes, 37°C",16 ± 1.1 µM
same,IC50,"Human IP6K1 [2]; 400μM IP6, 300μM ATP, 60nM IP6K1, 15 minutes",9.5 ± 1.5 µM
same,IC50,"Human IP6K1 [2]; 2mM ATP, 400μM IP6, 60nM IP6K1, 30 minutes, 37°C",39 ± 1.1 µM
same,Mode of inhibition of IP6K1,Human IP6K1 [2]; from IC50 shift with ATP or IP6 concentration,ATP competitive inhibitor; also recorded: IP6 is not competitive with TNP
same,Solubility in aqueous media,[3],insolubility in aqueous media
same,Signal loss in counter-screen of detection steps,[4],neither TNP nor 6-Hydroxy-DL-Dopa showed significant signal loss
same,"Inhibition of 5PP-IP5 production by IP6K1 (PAGE, Toluidine Blue)",Human IP6K1 [5],inhibit 5PP-IP5 production in this experiment at 10μM albeit to a lesser degree
